Where a name gives a salt, the structure may show the parent alone. Read-outs that look alike come from different tables or passages of the source.

The subject of assay [1] is MOLM13. The experiment in a line: Tumor growth inhibitory activities in nude mice xenograft model inoculated with human leukemia cells MOLM13. It is filed as in vivo. The settings on record: Mus musculus, MOLM-13, po, 50 mg/kg orally once a day, read-out: TGIR (%) (measurement date). How it is done: Pharmacological Test Example 5
Tumor Growth Inhibitory Activities in Nude Mice Xenograft Model Inoculated with Human Leukemia Cells
Human leukemia cells MOLM13 (subdivided from Hayashibara Biochemical Laboratories, Inc.) were subcutaneously transplanted into nude mice. […] The test compound suspended or dissolved in 0.5% methylcellulose was orally administered at a dose of 0.1 ml per 10 g body weight once a day for 9 days. For the control group, only vehicle was administered.
The tumor growth inhibition rate (TGIR) was calculated as follows:
The tumor growth inhibition rate (TGIR)=(1−TX/CX)×100
wherein CX represents the volume of tumor at day X for the control group when the tumor volume at the day of the start of the administration (day 1) was presumed to be 1; and TX represents the volume of tumor at day X for test compound administration groups.
(In xenograft studies the graft and the host belong to different species.)

For assay [2], the system named is MOLM13. Put plainly: Cell growth inhibitory activity using MTT method (MOLM13). It is filed as cell-based, human. The settings on record: MOLM13 cells. How it is done: Pharmacological Test Example 3
Measurement of Cell Growth Inhibitory Activity Using MTT Method
Human leukemia cell line MOLM13 (subdivided from Hayashibara Biochemical Laboratories, Inc.) was cultured in an RPMI medium containing 10% fetal calf serum (purchased from Asahi Techno Glass Corporation) within a 5% carbon dioxide incubator until the cell density reached 50 to 90% of the maximum cell density. These cells were seeded into wells, containing an RPMI medium containing 10% fetal calf serum, in a 96-well flat bottom plate in an amount of […] per well. The amount of the solution of the medium in each well was brought to 100 μl, and a test compound was added thereto to 500 ng, 100 ng, 20 ng, and 4 ng per ml. After culture within an incubator for 72 hr, 10 μl of a 5 mg/ml MTT (3-(4,5-dimethylthiazol-2-yl)-2,5-diphenyl tetrazolium bromide) solution (purchased from SIGMA) was added to the medium, and a reaction was allowed to proceed for 4 hr. Thereafter, 100 μl of a 0.04 N hydrochloric acid-isopropanol solution was added to completely dissolve the resultant MTT formazan crystal. After the dissolution, absorbance at 550 nm was measured using 620 nm as a reference wavelength with a microplate reader (DIGISCAN) (It is regarded that, in the MTT method, the viable cell count is reflected, and linearity is observed in a cell count per well range of 5×10^5 to 2×10^2 cells). After 72 hr, the absorbance of only the medium free from cells was subtracted from the absorbance of the well without the addition of the test compound to determine a value which was presumed to be 100%. On the other hand, the absorbance with the addition of the compound was expressed in terms of % growth.

The subject of assay [3] is MOLM13. The experiment in a line: Cell growth inhibitory activities on cultured human leukemia cells MOLM-13 (WST-1). To be noted: 3 days culture. Format: cell-based. In general terms: Formazan colour is commonly taken as a measure of viable cells.
Assay [4] deals with MV4-11. The experiment in a line: Cell growth inhibitory test MV4-11 (WST-1). Format: cell-based, human. To be noted: MV4-11 cells, 3 days culture. A digest of the protocol: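 MV4-11 leukemia cells (3×10^3/well, DMEM + 10% FCS) were cultured 3 days with compound in DMSO at 5% CO2. Growth read by WST-1 absorbance at 450 nm (ref 650 nm), normalized to untreated (100%) and cell-free (0%) wells; IC50 from multiple concentrations.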

One may read the IC50 as the concentration that gives 50% inhibition. Low values mean greater potency in that assay, high ones weaker potency in that assay. With `COc1cc2nccc(Oc3ccc(NC(=O)NC4CCCC(C)(C)C4)cc3Cl)c2cc1OC` (stereo not drawn) [Compound 12, 1-[3-Chloro-4-(6,7-dimethoxy-quinolin-4-yloxy)-phenyl]-3-(3,3-dimethyl-cyclohexyl)-urea], the inhibition in vivo at 50 mg/kg in assay [1] (240 h, day 10) was determined as 93.7%. The half-maximal inhibitory concentration (IC50) in assay [2] (Homo sapiens, MOLM-13, 72 h) was 5.37 nM; in assay [3] (Homo sapiens, MOLM-13, 72 h), 6 nM; in assay [4] (Homo sapiens, MV4-11, 72 h), 5 nM.

For the compound `COc1cc2c(Oc3ccc(NC(=O)NCCC(C)(C)C)cc3Cl)ccnc2cc1OCCCN1CCN(C)CC1` [Compound 77, 1-(3,3-Dimethyl-butyl)-3-(3-chloro-4-{6-methoxy-7-[3-(4-methyl-piperazin-1-yl)-propoxy]-quinolin-4-yloxy}-phenyl)-urea], the inhibition in vivo at 50 mg/kg in assay [1] (216 h, day 9) was found to be 70.4%.

Consider `COc1cc2c(Oc3ccc(NC(=O)NCCC(C)(C)C)cc3)ccnc2cc1OCCCN1CCN(C)CC1` [Compound 75, 1-(3,3-Dimethyl-butyl)-3-(4-{6-methoxy-7-[3-(4-methyl-piperazin-1-yl)-propoxy]-quinolin-4-yloxy}-phenyl)-urea hydrochloride], for which the inhibition in vivo at 50 mg/kg in assay [1] (216 h, day 9) turned out to be 94.1%. Also, the half-inhibitory concentration (IC50) in assay [3] (Homo sapiens, MOLM-13, 72 h) was under 1 nM; in assay [4] (Homo sapiens, MV4-11, 72 h), under 1 nM.

In the case of `COc1cc2nccc(Oc3ccc(NC(=O)NC4CC(C)CC(C)(C)C4)cc3F)c2cc1OC` (stereo not drawn) [Compound 15, 1-[4-(6,7-Dimethoxy-quinolin-4-yloxy)-3-fluoro-phenyl]-3-(3,3,5-trimethyl-cyclohexyl)-urea], the inhibition in vivo at 50 mg/kg in assay [1] (240 h, day 10) came to 89.4%. Also, the IC50 turned out to be 9.5 nM in assay [2] (Homo sapiens, MOLM-13, 72 h); 22 nM in assay [3] (Homo sapiens, MOLM-13, 72 h); 11 nM in assay [4] (Homo sapiens, MV4-11, 72 h).

Take `COc1cc2nccc(Oc3ccc(NC(=O)NC4CC(C)CC(C)(C)C4)cc3Cl)c2cc1OC` (stereo not drawn) [Compound 13, 1-[3-Chloro-4-(6,7-dimethoxy-quinolin-4-yloxy)-phenyl]-3-(3,3,5-trimethyl-cyclohexyl)-urea]: the inhibition in vivo at 50 mg/kg in assay [1] (240 h, day 10) was determined as 84.8%. In addition, the IC50 in assay [2] (Homo sapiens, MOLM-13, 72 h) amounted to 3.87 nM; in assay [3] (Homo sapiens, MOLM-13, 72 h) it was 21 nM; in assay [4] (Homo sapiens, MV4-11, 72 h), 18 nM.

With `COc1cc2c(Oc3ccc(NC(=O)NCCC(C)(C)C)c(F)c3)ccnc2cc1OCCCN1CCN(C)CC1` [Compound 76, 1-(3,3-Dimethyl-butyl)-3-(2-fluoro-4-{6-methoxy-7-[3-(4-methyl-piperazin-1-yl)-propoxy]-quinolin-4-yloxy}-phenyl)-urea], the inhibition in vivo at 50 mg/kg in assay [1] (216 h, day 9) was 34.3%.

`COc1cc2nccc(Oc3ccc(NC(=O)NC4CCCC(C)(C)C4)cc3F)c2cc1OC` (stereo not drawn) [Compound 14, 1-[4-(6,7-Dimethoxy-quinolin-4-yloxy)-3-fluoro-phenyl]-3-(3,3-dimethyl-cyclohexyl)-urea]: in assay [1] (240 h, day 10), the inhibition in vivo at 50 mg/kg was 96.1%. Further, the IC50 in assay [2] (Homo sapiens, MOLM-13, 72 h) was 5.13 nM; in assay [3] (Homo sapiens, MOLM-13, 72 h), 3 nM; in assay [4] (Homo sapiens, MV4-11, 72 h), 2 nM.

As to `COc1cc2nccc(Oc3ccc(NC(=O)NCCC4CCCCC4)cc3F)c2cc1OC` [Compound 16, 1-(2-Cyclohexyl-ethyl)-3-[4-(6,7-dimethoxy-quinolin-4-yloxy)-3-fluoro-phenyl]-urea], the IC50 in assay [2] (Homo sapiens, MOLM-13, 72 h) was 18.8 nM; in assay [3] (Homo sapiens, MOLM-13, 72 h) it was 7 nM; in assay [4] (Homo sapiens, MV4-11, 72 h), 4 nM.

Turning to `COc1cc2c(Oc3ccc(NC(=O)NC4CC(C)CC(C)(C)C4)cc3F)ccnc2cc1OCCN1CCCCC1` (stereo not drawn) [Compound 56, 1-{3-Fluoro-4-[6-methoxy-7-(2-piperidin-1-yl-ethoxy)-quinolin-4-yloxy]-phenyl}-3-(3,3,5-trimethyl-cyclohexyl)-urea], the IC50 was 11.3 nM in assay [2] (Homo sapiens, MOLM-13, 72 h); 26 nM in assay [3] (Homo sapiens, MOLM-13, 72 h); 14 nM in assay [4] (Homo sapiens, MV4-11, 72 h).

Regarding `COc1cc2c(Oc3ccc(NC(=O)NCCC(C)C)c(F)c3)ccnc2cc1OCCN1CCOCC1` [Compound 73, 1-{2-Fluoro-4-[6-methoxy-7-(2-morpholin-4-yl-ethoxy)-quinolin-4-yloxy]-phenyl}-3-(3-methyl-butyl)-urea], the IC50 came out at 21.5 nM in assay [2] (Homo sapiens, MOLM-13, 72 h); 20 nM in assay [3] (Homo sapiens, MOLM-13, 72 h); 6 nM in assay [4] (Homo sapiens, MV4-11, 72 h).

In the case of `COc1cc2nccc(Oc3ccc(NC(=O)NCCC(C)(C)C)cc3OC)c2cc1OC` [Compound 5, 1-[4-(6,7-Dimethoxy-quinolin-4-yloxy)-3-methoxy-phenyl]-3-(3,3-dimethyl-butyl)-urea], the IC50 in assay [2] (Homo sapiens, MOLM-13, 72 h) amounted to 93.1 nM; in assay [3] (Homo sapiens, MOLM-13, 72 h) it was 36 nM; in assay [4] (Homo sapiens, MV4-11, 72 h) it was 23 nM.

Regarding `COc1cc2c(Oc3ccc(NC(=O)NC4CCCC(C)(C)C4)c(F)c3)ccnc2cc1OCCN1CCOCC1` (stereo not drawn) [Compound 69, 1-(3,3-Dimethyl-cyclohexyl)-3-{2-fluoro-4-[6-methoxy-7-(2-morpholin-4-yl-ethoxy)-quinolin-4-yloxy]-phenyl}-urea], the IC50 in assay [2] (Homo sapiens, MOLM-13, 72 h) came to 17.7 nM; in assay [3] (Homo sapiens, MOLM-13, 72 h), 8 nM; in assay [4] (Homo sapiens, MV4-11, 72 h), 2 nM.

In the case of `COc1cc2c(Oc3ccc(NC(=O)NCCC(C)(C)C)c(F)c3)ccnc2cc1OCCN1CCOCC1` [Compound 67, 1-(3,3-Dimethyl-butyl)-3-{2-fluoro-4-[6-methoxy-7-(2-morpholin-4-yl-ethoxy)-quinolin-4-yloxy]-phenyl}-urea], the 50% inhibitory concentration (IC50) in assay [2] (72 hr) is 16.1 nM; in assay [3], 4 nM; in assay [4], 2 nM.

Turning to `COc1cc2c(Oc3ccc(NC(=O)NCCC(C)(C)C)cc3)ccnc2cc1OCCN1CC(C)CC(C)C1` (stereo not drawn) [Compound 53, 1-(3,3-Dimethyl-butyl)-3-(4-{7-[2-(3,5-dimethyl-piperidin-1-yl)-ethoxy]-6-methoxy-quinolin-4-yloxy}-phenyl)-urea], the IC50 in assay [2] (Homo sapiens, MOLM-13, 72 h) came to 16.7 nM; in assay [3] (Homo sapiens, MOLM-13, 72 h) it was 13 nM; in assay [4] (Homo sapiens, MV4-11, 72 h), 4 nM.

Take `COc1cc2c(Oc3ccc(NC(=O)NCCC4CCCC4)c(F)c3)ccnc2cc1OCCN1CCCCC1` [Compound 65, 1-(2-Cyclopentyl-ethyl)-3-{2-fluoro-4-[6-methoxy-7-(2-piperidin-1-yl-ethoxy)-quinolin-4-yloxy]-phenyl}-urea]: the IC50 is 24.6 nM in assay [2] (Homo sapiens, MOLM-13, 72 h); 9 nM in assay [3] (Homo sapiens, MOLM-13, 72 h); 4 nM in assay [4] (Homo sapiens, MV4-11, 72 h).

As for `COc1cc2c(Oc3ccc(NC(=O)NCCC(C)(C)C)c(Cl)c3)ccnc2cc1OCCCN1CCCC1` [Compound 45, 1-{2-Chloro-4-[6-methoxy-7-(3-pyrrolidin-1-yl-propoxy)-quinolin-4-yloxy]-phenyl}-3-(3,3-dimethyl-butyl)-urea], the half-inhibitory concentration (IC50) in assay [2] (Homo sapiens, MOLM-13, 72 h) is 255 nM; in assay [3] (Homo sapiens, MOLM-13, 72 h), 140 nM; in assay [4] (Homo sapiens, MV4-11, 72 h), 118 nM.

For the compound `COc1cc2c(Oc3ccc(NC(=O)NCCC(C)(C)C)cc3F)ccnc2cc1OCCN1C(C)CCCC1C` (stereo not drawn) [Compound 62, 1-(3,3-Dimethyl-butyl)-3-(4-{7-[2-(2,6-dimethyl-piperidin-1-yl)-ethoxy]-6-methoxy-quinolin-4-yloxy}-3-fluoro-phenyl)-urea], the concentration for half-maximal inhibition (IC50) in assay [2] (Homo sapiens, MOLM-13, 72 h) worked out at 26.5 nM; in assay [3] (Homo sapiens, MOLM-13, 72 h) it was 7 nM; in assay [4] (Homo sapiens, MV4-11, 72 h) it was 4 nM.

(Values after patent publication US20080207617A1, “Quinoline Derivatives and Quinazoline Derivatives Inhibiting Autophosphrylation of Flt3 and Medicinal Compositions Containing the Same” (KIRIN BEER KABUSHIKI KAISHA, priority 2002, published 2008).)
